From the supplement of paper PMC11919725

Assays:
Jurkat [1] = test: metabolic activity relative to DMSO, 18 h (ratio); higher = more viable
How it was run: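 Metabolic activity was expressed relative to the mean of vehicle control wells. Jurkat cells or primary CD4+/CD8+ T cells, either naive or activated for 48 h with CD3/CD28 Dynabeads, were exposed to compound from 1 nM to 10 µM in log10 steps for 18 h at 37 °C, 5% CO2. Aliquots of 100 µl of suspension were moved to 96-well plates containing alamarBlue (10% v/v final), and fluorescence was read after 3.5 h on a FluoStar Omega at excitation 544 nm and emission 584 nm.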

Jurkat [2] = test: confluency relative to DMSO, 18 h (ratio); higher = more viable
How it was run: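 Jurkat or primary CD4+/CD8+ T cells (naive, or activated 48 h with CD3/CD28 Dynabeads) were treated 18 h with compound at 1 nM–10 µM (log10 steps) at 37 °C, 5% CO2. Then 100 µl of suspension went into 96-well plates with IncuCyte Cytotox Dye and alamarBlue. Confluency came from IncuCyte phase-contrast imaging (×10, five images per well, hourly over 3 h) using the Basic Analyzer. Values are normalised to mean DMSO controls.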

Jurkat [3] = test: cytotoxicity relative to DMSO, 18 h (ratio); higher = less cell death (drugs called cytotoxic fall below 1)
How it was run: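 Jurkat cells or primary CD4+/CD8+ T cells, either naive or activated for 48 h with CD3/CD28 Dynabeads, were exposed to compound from 1 nM to 10 µM in log10 steps for 18 h at 37 °C, 5% CO2. Aliquots of 100 µl of suspension were then moved to 96-well plates containing IncuCyte Cytotox Dye at 250 nM final. Cytotoxicity was read by IncuCyte fluorescence imaging, with signals corrected for confluency and normalised to the mean of control wells.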

Compound | metabolic activity (Jurkat [1]; 1 nM) | metabolic activity (Jurkat [1]; 10 nM) | metabolic activity (Jurkat [1]; 100 nM) | metabolic activity (Jurkat [1]; 1000 nM) | metabolic activity (Jurkat [1]; 10000 nM) | confluency (Jurkat [2]; 1 nM) | confluency (Jurkat [2]; 10 nM) | confluency (Jurkat [2]; 100 nM) | confluency (Jurkat [2]; 1000 nM) | confluency (Jurkat [2]; 10000 nM) | cytotoxicity (Jurkat [3]; 1 nM) | cytotoxicity (Jurkat [3]; 10 nM) | cytotoxicity (Jurkat [3]; 100 nM) | cytotoxicity (Jurkat [3]; 1000 nM) | cytotoxicity (Jurkat [3]; 10000 nM)
CN(C)CC(=O)Nc1ccc2[nH]c(=O)c3ccccc3c2c1 [PJ34] | 0.99 | 1.03 | 1.04 | 0.955 | 1.12 | 0.971 | 0.933 | 0.94 | 0.99 | 0.968 | 0.966 | 0.947 | 0.963 | 0.932 | 1.17
CC(=O)OC1C(=O)C2(C)C(O)CC3OCC3(OC(C)=O)C2C(OC(=O)c2ccccc2)C2(O)CC(OC(=O)C(O)C(NC(=O)c3ccccc3)c3ccccc3)C(C)=C1C2(C)C (stereo not given) [Paclitaxel] | 1.05 | 0.568 | 0.576 | 0.534 | 0.744 | 1 | 0.989 | 0.964 | 0.939 | 0.81 | 1.16 | 0.953 | 0.883 | 0.854 | 0.797
CC(=O)c1c(C)c2cnc(Nc3ccc(N4CCNCC4)cn3)nc2n(C2CCCC2)c1=O [Palbociclib] | 0.877 | 0.988 | 0.96 | 0.995 | 0.88 | 0.829 | 0.902 | 0.974 | 1.04 | 0.813 | 0.851 | 0.93 | 0.95 | 1.03 | 0.793
Nc1nc2[nH]cc(CCc3ccc(C(=O)NC(CCC(=O)O)C(=O)O)cc3)c2c(=O)[nH]1 (stereo not given) [Pemetrexed] | 1.02 | 1.11 | 1.06 | 1.09 | 0.853 | 1 | 0.962 | 0.845 | 0.839 | 0.835 | 0.992 | 0.997 | 0.837 | 0.821 | 0.75
CC(=O)N1CCC(Nc2cc(C(=O)NCC(O)CN3CCc4ccccc4C3)ncn2)CC1 (stereo not given) [Pemrametostat] | 0.952 | 0.904 | 0.931 | 0.95 | 1.2 | 1.05 | 1.06 | 1.01 | 1.03 | 0.947 | 1.07 | 1.09 | 1.06 | 1.05 | 1.05
COc1ccc(Cl)c(Nc2nc3ccccc3nc2NS(=O)(=O)c2cccc(NC(=O)C(C)(C)N)c2)c1 [Pilaralisib] | 1.02 | 1.03 | 1.03 | 0.939 | 0.877 | 0.978 | 1.01 | 1.01 | 0.994 | 0.976 | 1.06 | 1.11 | 1.1 | 0.959 | 0.942
CC(C)N(CC1OC(n2cnc3c(N)ncnc32)C(O)C1O)C1CC(CCc2nc3ccc(C(C)(C)C)cc3[nH]2)C1 (stereo not given) [Pinometostat] | 0.998 | 1.05 | 1.12 | 0.858 | 0.958 | 0.929 | 0.934 | 1.11 | 1.02 | 0.941 | 0.982 | 1.06 | 1.25 | 1.01 | 1
Nc1cccc2c1C(=O)N(C1CCC(=O)NC1=O)C2=O (stereo not given) [Pomalidomide] | 0.995 | 1.01 | 1.04 | 1.12 | 1.09 | 0.955 | 0.902 | 0.943 | 0.948 | 0.94 | 1.04 | 0.986 | 0.512 | 1.03 | 0.936
CC12C=CC(=O)C=C1CCC1C2C(=O)CC2(C)C1CCC2(O)C(=O)CO (stereo not given) [Prednisone] | 0.872 | 0.991 | 1.07 | 1.04 | 1.15 | 1.01 | 0.981 | 0.993 | 1.01 | 1.02 | 0.964 | 1.01 | 1.02 | 1.05 | 1.21
Cn1cc(CNCC2CCN(c3ncc(C(=O)NO)cn3)CC2)c2ccccc21 [Quisinostat] | 0.876 | 1.04 | 0.875 | 0.688 | 0.667 | 0.847 | 0.918 | 0.963 | 1.02 | 0.957 | 0.816 | 1.07 | 0.897 | 0.958 | 0.908
COc1ccc(F)c(F)c1C(=O)c1cnc(NC2CCN(S(C)(=O)=O)CC2)nc1N [R-547] | 1.09 | 1.02 | 1 | 0.739 | 0.134 | 1.07 | 1.18 | 1.04 | 1.04 | 1.01 | 1.01 | 0.934 | 1.08 | 1.04 | 1.04
COC1CC2CCC(C)C(O)(O2)C(=O)C(=O)N2CCCCC2C(=O)OC(C(C)CC2CCC(O)C(OC)C2)CC(=O)C(C)C=C(C)C(O)C(OC)C(=O)C(C)CC(C)C=CC=CC=C1C (stereo not given) [Rapamycin] | 0.859 | 0.948 | 0.789 | 0.77 | 0.742 | 1.01 | 0.98 | 0.933 | 0.902 | 0.81 | 0.973 | 1.02 | 1.05 | 0.913 | 0.831
Cn1nccc1Nc1nccc(-c2ccn(C(CO)c3ccc(Cl)c(F)c3)c(=O)c2)n1 (stereo not given) [Ravoxertinib] | 0.977 | 0.997 | 1.04 | 1.07 | 1.1 | 0.989 | 0.841 | 0.884 | 0.894 | 0.886 | 1.1 | 0.921 | 1 | 0.983 | 1.02
CN(C)C(=O)c1cc2cnc(Nc3ccc(N4CCNCC4)cn3)nc2n1C1CCCC1 [Ribociclib] | 0.887 | 0.874 | 0.862 | 0.879 | 0.856 | 1 | 0.964 | 1.09 | 1.06 | 1.14 | 0.914 | 0.883 | 1.01 | 0.984 | 1.06
O=C(CCCCCCNC(=O)c1cnc(N(c2ccccc2)c2ccccc2)nc1)NO [Ricolinostat] | 0.874 | 0.881 | 0.933 | 0.841 | 0.655 | 1.01 | 1 | 1.03 | 0.976 | 0.984 | 1.01 | 0.933 | 1.07 | 0.969 | 0.881
COc1cc(OC)c(C=CS(=O)(=O)Cc2ccc(OC)c(NCC(=O)O)c2)c(OC)c1 [Rigosertib] | 1.01 | 1.01 | 0.87 | 0.426 | 0.468 | 1.02 | 1.01 | 1.01 | 0.871 | 0.797 | 0.92 | 0.988 | 0.948 | 0.711 | 0.621
CN1CCC(c2c(O)cc(O)c3c(=O)cc(-c4ccccc4Cl)oc23)C1CO (stereo not given) [Riviciclib] | 1.04 | 0.872 | 0.754 | 0.6 | 0.242 | 1.07 | 1.04 | 0.985 | 0.866 | 1.03 | 0.627 | 0.605 | 1 | 0.783 | 1.04
CC=C1NC(=O)C2CSSCCC=CC(CC(=O)NC(C(C)C)C(=O)N2)OC(=O)C(C(C)C)NC1=O (stereo not given) [Romidepsin] | 1.1 | 0.839 | 0.703 | 0.539 | 0.042 | 0.987 | 1.07 | 1.02 | 1 | 1.03 | 0.904 | 0.961 | 0.914 | 1.03 | 1.06
CNCc1ccc(-c2[nH]c3cc(F)cc4c3c2CCNC4=O)cc1 [Rucaparib] | 0.926 | 0.952 | 0.981 | 0.996 | 0.973 | 1.06 | 1.03 | 1.04 | 1.07 | 0.931 | 1.06 | 1 | 1.04 | 1.07 | 0.899
CC(C)(C)c1cnc(CSc2cnc(NC(=O)C3CCNCC3)s2)o1 [SNS-032] | 0.778 | 0.953 | 0.979 | 0.192 | 0.167 | 1.13 | 1.09 | 1.08 | 1.13 | 1.17 | 1.06 | 1.06 | 1.06 | 0.66 | 0.657
O=C(Nc1cccc(Cl)c1)Nc1ncc(CCNc2ncnc3ccsc23)s1 [SNS-314] | 0.955 | 0.945 | 0.979 | 0.909 | 0.797 | 0.951 | 0.963 | 0.974 | 0.907 | 0.78 | 0.951 | 0.912 | 0.92 | 0.832 | 0.733
Cc1nc(-c2cccnc2)sc1C(=O)Nc1ccccc1-c1cn2c(CN3CCOCC3)csc2n1 [SRT2104] | 1.03 | 1.01 | 1.03 | 1.03 | 0.982 | 1.06 | 1.02 | 1.05 | 1.04 | 0.971 | 1.13 | 1.06 | 1.13 | 1.11 | 1.05
CCC(CO)Nc1nc(NCc2ccccc2)c2ncn(C(C)C)c2n1 (stereo not given) [Seliciclib] | 0.994 | 0.987 | 0.945 | 0.962 | 1.03 | 1.03 | 0.968 | 0.924 | 0.977 | 0.943 | 1.02 | 0.922 | 0.883 | 0.948 | 0.957
